Patent US9833497B2, “Human originated EGF domain proteins and use of the same” (CHENGDU SOURCEBIO LIMITED-LIABILITY COMPANY, priority 2013, dated 2017)

How the values were obtained:
Assay type in all cases: cell-based
Enterobacter cloacae = assay: MIC against Gram-negative bacteria: Enterobacter cloacae; conditions: Enterobacter cloacae; 96-well plate, 5×10^5 CFU/mL, 37° C., 10 h
Procedure: (§1) 1. Gram-negative bacteria, such as E. coli BL21, Pseudomonas aeruginosa, Klebsiella pneumonia, Enterobacter cloacae, Aeromonas hydrophila, Citrobacter diversus, Moraxella catarrhalis, Proteus mirabilis, Proteus vulgaris, Serratia marcescens, etc were streaked on solid LB medium and cultured respectively. Then, typical clones were picked, inoculated into common liquid LB medium respectively, and cultured at 37° C. with shaking at 185 rpm until the McFarland specific turbidity was 0.5. The bacterial culture of each of Gram-negative bacteria was centrifuged at 4000×g for 3 min, the supernatant was discarded, and the thalli were resuspended with fresh LB medium.
(§2) 2. The above-mentioned bacterial suspensions were diluted and inoculated into 96-well plates with the final concentration of the bacterial suspension being 5×10^5 CFU/mL per well.
(§3) 3. Each of the purified human-originated EGF domain proteins (PRT1 to PRT1498 in Table 1) was added to each of the above wells and subjected to two-fold serial dilution in concentration. Three parallel wells were set up for each concentration in the gradient.
(§4) 4. The above-mentioned 96-well plates were placed and cultured at 37° C. in shaking incubator shaking at 175 rpm. […] The minimal inhibitory concentration MIC is defined as the lowest concentration of the recombinant protein at which there is no growth of the bacteria.

Aeromonas hydrophila = assay: MIC against Gram-negative bacteria: Aeromonas hydrophila; conditions: Aeromonas hydrophila; 96-well plate, 5×10^5 CFU/mL, 37° C., 10 h
Procedure: as §1, §2, §3, §4

Proteus mirabilis = assay: MIC against Gram-negative bacteria: Proteus mirabilis; conditions: Proteus mirabilis; 96-well plate, 5×10^5 CFU/mL, 37° C., 10 h
Procedure: as §1, §2, §3, §4

Citrobacter diversus = assay: MIC against Gram-negative bacteria: Citrobacter diversus; conditions: Citrobacter diversus; 96-well plate, 5×10^5 CFU/mL, 37° C., 10 h
Procedure: as §1, §2, §3, §4

Proteus vulgaris = assay: MIC against Gram-negative bacteria: Proteus vulgaris; conditions: Proteus vulgaris; 96-well plate, 5×10^5 CFU/mL, 37° C., 10 h
Procedure: as §1, §2, §3, §4

E. coli DH5α = assay: Antibacterial activity: MIC and growth curve against E. coli DH5α in 96-well plate; conditions: minimal inhibitory concentration against E. coli DH5α; 96-well plate, 5×10^5 CFU/mL, 37° C., judged after 8 h
Procedure: 1. E. coli DH5α was exemplified. E. coli DH5α was streaked and cultured on LB solid medium. Then, a typical clone was picked and inoculated into common LB liquid medium, cultured at 37° C. with shaking at 185 rpm until the logarithmic growth phase was reached (OD600 of about 0.5). The bacterial culture was centrifuged at 4000×g for 3 min, the supernatant was discarded, and the thalli were resuspended with fresh LB medium.
2. The above-mentioned bacterial suspension was diluted and inoculated into a 96-well plate with the total volume of 100 μL per well and a bacterial count of 5×10^5 CFU/mL.
3. The recombinant protein hF VII-EGF1 was added to the above-mentioned wells with the final protein concentration in the well of the highest protein concentration being 50 μg/mL. Basing on this final concentration, a two-fold serial dilution was performed till a protein concentration gradient consisting of 50, 25, and 12.5 μg/mL was set up. Three parallel wells were set up for each concentration in the gradient.
as §4, with “plate was” for “plates were”, “rpm. Samples were taken every 30 min, the absorbance values were determined at 600 nm wavelength under a ultra violet spectrophotometer, and an inhibition curve was plotted.” for “rpm.”
According to the experimental procedures in Example 14, the minimal inhibitory concentrations (MIC, μg/mL) of the other human-originated EGF domain proteins (PRT2 to PRT1498 in Table 1) for E. coli DH5α were determined.

Serratia marcescens = assay: MIC against Gram-negative bacteria: Serratia marcescens; conditions: Serratia marcescens; 96-well plate, 5×10^5 CFU/mL, 37° C., 10 h
Procedure: as §1, §2, §3, §4

Klebsiella pneumonia = assay: MIC against Gram-negative bacteria: Klebsiella pneumonia; conditions: Klebsiella pneumonia; 96-well plate, 5×10^5 CFU/mL, 37° C., 10 h
Procedure: as §1, §2, §3, §4

E. coli BL21 = assay: MIC against Gram-negative bacteria: E. coli BL21; conditions: E. coli BL21; 96-well plate, 5×10^5 CFU/mL, 37° C., 10 h
Procedure: as §1, §2, §3, §4

Pseudomonas aeruginosa = assay: MIC against Gram-negative bacteria: Pseudomonas aeruginosa; conditions: Pseudomonas aeruginosa; 96-well plate, 5×10^5 CFU/mL, 37° C., 10 h
Procedure: as §1, §2, §3, §4

Moraxella catarrhalis = assay: MIC against Gram-negative bacteria: Moraxella catarrhalis; conditions: Moraxella catarrhalis; 96-well plate, 5×10^5 CFU/mL, 37° C., 10 h
Procedure: as §1, §2, §3, §4

Substance	MIC (μg/mL) E. cloacae (Enterobacter cloacae)	MIC (μg/mL) A. hydrophila (Aeromonas hydrophila)	MIC (μg/mL) P. mirabilis (Proteus mirabilis)	MIC (μg/mL) C. diversus (Citrobacter diversus)	MIC (μg/mL) P. vulgaris (Proteus vulgaris)	MIC (E. coli DH5α)	MIC (μg/mL) S. marcescens (Serratia marcescens)	MIC (μg/mL) K. pneumonia (Klebsiella pneumonia)	MIC (μg/mL) E. coli BL21 (E. coli BL21)	MIC (μg/mL) P. aeruginosa (Pseudomonas aeruginosa)	MIC (μg/mL) M. catarrhalis (Moraxella catarrhalis)
PRT25 (PGVCRNGGTCTDAPNGGFRCQCPAGGAFEGPRCE; listed as Homo sapiens)	25 µg/mL	12.5 µg/mL	12.5 µg/mL	100 µg/mL	25 µg/mL	50 µg/mL	12.5 µg/mL	50 µg/mL	50 µg/mL	25 µg/mL	25 µg/mL
PRT26 (CDSGPCKNSGFCSERWGSFSCDCPVGFGGKDCQ; listed as Homo sapiens)	25 µg/mL	12.5 µg/mL	25 µg/mL	25 µg/mL	12.5 µg/mL	25 µg/mL	25 µg/mL	12.5 µg/mL	12.5 µg/mL	25 µg/mL	12.5 µg/mL
PRT27 (NACASGPCPPHADCRDLWQTFSCTCQPGYYGPGCV; listed as Homo sapiens)	12.5 µg/mL	25 µg/mL	25 µg/mL	50 µg/mL	50 µg/mL	12.5 µg/mL	100 µg/mL	25 µg/mL	25 µg/mL	50 µg/mL	12.5 µg/mL
PRT28 (VDACLLNPCQNQGSCRHLPGAPHGYTCDCVGGYFGHHCE; listed as Homo sapiens)	25 µg/mL	12.5 µg/mL	12.5 µg/mL	25 µg/mL	25 µg/mL	50 µg/mL	50 µg/mL	50 µg/mL	25 µg/mL	12.5 µg/mL	50 µg/mL
PRT29 (PCNCDVHKGFDPNCNKTNGQCHCKEFHYRPRGSDSCLP; listed as Homo sapiens)	50 µg/mL	25 µg/mL	25 µg/mL	25 µg/mL	50 µg/mL	25 µg/mL	12.5 µg/mL	25 µg/mL	25 µg/mL	12.5 µg/mL	12.5 µg/mL
PRT30 (PCDCYPVGSTSRSCAPHSGQCPCRPGALGRQCNSCDSPF; listed as Homo sapiens)	50 µg/mL	12.5 µg/mL	12.5 µg/mL	25 µg/mL	25 µg/mL	25 µg/mL	12.5 µg/mL	25 µg/mL	50 µg/mL	12.5 µg/mL	50 µg/mL
PRT31 (CDCYPVGSTSRSCAPHSGQCPCRPGALGRQCNSCDSPFAEVTASGC; listed as Homo sapiens)	12.5 µg/mL	25 µg/mL	25 µg/mL	12.5 µg/mL	50 µg/mL	25 µg/mL	25 µg/mL	25 µg/mL	12.5 µg/mL	12.5 µg/mL	12.5 µg/mL
